pIC50: −log10 of the molar value. Structures can show the parent of a compound that is named as a salt. Where two headings read alike, the source gives them in different places.
Experiments:
[1] = biological target: human serotonin transporter (Homo sapiens (Human), UniProt P31645); assay: Serotonin functional uptake assay, recombinant human transporter in HEK-293 cells; assay type: cell-based
[2] = biological target: human dopamine transporter (Homo sapiens (Human), UniProt Q01959); assay: Dopamine functional uptake assay, recombinant human transporter in CHO-K1 or HEK293 cells; assay type: cell-based; conditions: read-out: hDAT IC50
Chain of human dopamine transporter (Q01959 whole entry): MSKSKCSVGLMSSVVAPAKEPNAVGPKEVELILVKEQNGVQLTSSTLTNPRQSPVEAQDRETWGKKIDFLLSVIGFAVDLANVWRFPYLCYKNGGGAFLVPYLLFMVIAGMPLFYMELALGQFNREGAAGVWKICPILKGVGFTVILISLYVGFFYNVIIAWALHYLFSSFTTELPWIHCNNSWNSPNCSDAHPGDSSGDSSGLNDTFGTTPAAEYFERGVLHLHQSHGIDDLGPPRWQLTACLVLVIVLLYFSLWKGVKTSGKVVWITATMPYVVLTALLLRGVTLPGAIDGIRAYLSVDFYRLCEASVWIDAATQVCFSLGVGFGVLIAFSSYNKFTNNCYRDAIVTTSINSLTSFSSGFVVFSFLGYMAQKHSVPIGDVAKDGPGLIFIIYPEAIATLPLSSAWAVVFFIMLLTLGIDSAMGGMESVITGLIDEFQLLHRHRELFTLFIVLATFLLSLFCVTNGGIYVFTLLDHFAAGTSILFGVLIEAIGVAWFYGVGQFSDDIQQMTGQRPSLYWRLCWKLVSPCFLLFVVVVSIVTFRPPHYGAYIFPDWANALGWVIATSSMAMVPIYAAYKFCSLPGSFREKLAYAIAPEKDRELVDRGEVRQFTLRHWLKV

[3] = biological target: 5-HT Transporter (SERT) sites in mouse brain (Mus musculus (Mouse), UniProt Q60857); assay: Ex vivo [3H] citalopram binding to SERT sites in mouse brain after oral dosing; conditions: mice, 60 min after treatment
[4] = biological target: DA Transporter (DAT) sites in mouse brain (Mus musculus (Mouse), UniProt Q61327); assay: Ex vivo [3H] WIN 35428 binding to DAT sites in mouse brain after oral dosing; conditions: mice, 60 min after treatment
[5] = Human serotonin transporter uptake, read-out: hSERT IC50

Chain of human serotonin transporter (P31645 whole entry): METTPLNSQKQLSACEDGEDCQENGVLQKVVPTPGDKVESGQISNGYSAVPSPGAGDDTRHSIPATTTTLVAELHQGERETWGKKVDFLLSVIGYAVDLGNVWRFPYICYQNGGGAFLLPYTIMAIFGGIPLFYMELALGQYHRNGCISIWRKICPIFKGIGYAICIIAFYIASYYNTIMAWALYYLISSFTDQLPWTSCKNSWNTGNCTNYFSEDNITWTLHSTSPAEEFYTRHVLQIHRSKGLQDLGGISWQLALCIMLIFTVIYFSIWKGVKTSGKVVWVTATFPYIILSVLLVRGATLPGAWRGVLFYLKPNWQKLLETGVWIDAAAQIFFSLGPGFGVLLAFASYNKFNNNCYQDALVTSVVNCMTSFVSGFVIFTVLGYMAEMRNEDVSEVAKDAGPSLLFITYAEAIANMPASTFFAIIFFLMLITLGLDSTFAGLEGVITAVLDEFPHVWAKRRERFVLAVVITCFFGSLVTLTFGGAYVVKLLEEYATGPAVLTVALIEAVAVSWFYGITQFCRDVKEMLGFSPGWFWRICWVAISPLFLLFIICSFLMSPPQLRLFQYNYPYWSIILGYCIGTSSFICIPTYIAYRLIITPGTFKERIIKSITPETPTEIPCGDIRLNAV

SMILES	pIC50 [1, 5]	pIC50 [2]	also measured
OC1CCCC1NCC1(c2ccc(Cl)c(Cl)c2)CCCCC1 (racemic) [Compound 116, (±) 2-((1-(3,4-dichlorophenyl)cyclohexyl)methylamino)cyclopentanol]	5.69	8.52	
C[C@@H]1CCCC[C@@]1(CN)c1ccc(Cl)c(Cl)c1 (racemic) [Compound 174, (±)-cis-(1-(3,4-dichlorophenyl)-2-methylcyclohexyl)methanamine hydrochloride]	6.61	5.56	
C[C@@H]1CCCC[C@@]1(CN(C)C)c1ccc(Cl)c(Cl)c1 (racemic) [Compound 175, (±) cis-1-(1-(3,4-dichlorophenyl)-2-methylcyclohexyl)-N,N-dimethylmethanamine hydrochloride]	7.26	6.90	
CNC[C@@]1(c2ccc(Cl)c(Cl)c2)CCCC[C@H]1C (racemic) [Compound 176, (±) cis-1-(1-(3,4-dichlorophenyl)-2-methylcyclohexyl)-N-methylmethanamine]	6.27	6.11	
CCNC[C@@]1(c2ccc(Cl)c(Cl)c2)CCCC[C@H]1C (racemic) [Compound 177, (±) cis-N-((1-(3,4-dichlorophenyl)-2-methylcyclohexyl)methyl)ethanamine]	5.49	6.49	
CNC(=O)[C@@]1(c2ccc3ccccc3c2)CCCC[C@H]1O (relative stereo) [Compound 300, cis-2-hydroxy-N-methyl-1-(naphthalen-2-yl)cyclohexanecarboxamide]	< 5.00	5.76	
CNC(C)C1(c2ccc3ccccc3c2)CCCCC1 (single isomer, unassigned) [58 E1, N-methyl-1-(1-(naphthalen-2-yl)cyclohexyl)ethanamine]			SERT Mean Specific Binding ± S.E.M. ([3]; 1 mg/kg PO): 3245 ± 107 dpm; SERT Mean Specific Binding ± S.E.M. ([3]; 3 mg/kg PO): 3021 ± 182 dpm; SERT Mean Specific Binding ± S.E.M. ([3]; 10 mg/kg PO): 1799 ± 115 dpm; SERT Mean Specific Binding ± S.E.M. ([3]; 30 mg/kg PO): 469 ± 43 dpm; receptor occupancy at 1 mg/kg ([3]; mouse, 1 mg/kg PO): 5%; receptor occupancy at 3 mg/kg ([3]; mouse, 3 mg/kg PO): 11%; receptor occupancy at 10 mg/kg ([3]; mouse, 10 mg/kg PO): 47%; receptor occupancy at 30 mg/kg ([3]; mouse, 30 mg/kg PO): 86%; DAT Mean Specific Binding ± S.E.M. ([4]; 1 mg/kg PO): 15732 ± 1360 dpm; DAT Mean Specific Binding ± S.E.M. ([4]; 3 mg/kg PO): 14938 ± 2613 dpm; DAT Mean Specific Binding ± S.E.M. ([4]; 10 mg/kg PO): 17215 ± 2151 dpm; DAT Mean Specific Binding ± S.E.M. ([4]; 30 mg/kg PO): 12876 ± 2152 dpm; receptor occupancy at 1 mg/kg ([4]; mouse, 1 mg/kg PO): 7%; receptor occupancy at 3 mg/kg ([4]; mouse, 3 mg/kg PO): 11%; receptor occupancy at 10 mg/kg ([4]; mouse, 10 mg/kg PO): -2%; receptor occupancy at 30 mg/kg ([4]; mouse, 30 mg/kg PO): 24%
CNC[C@]1(c2ccc(Cl)cc2)CCCC[C@H]1O (single isomer, unassigned) [136 E1, trans-2-(4-chlorophenyl)-2-((methylamino)methyl)-cyclohexanol]		5.54	
CNC[C@]1(c2ccc(Cl)cc2)CCCC[C@H]1O (single isomer, unassigned) [136 E2, trans-2-(4-chlorophenyl)-2-((methylamino)methyl)-cyclohexanol]		5.47	
CNC[C@]1(c2cccc(Cl)c2)CCCC[C@H]1O (single isomer, unassigned) [138 E1, trans-2-(3-chlorophenyl)-2-((methylamino)methyl)cyclohexanol]		6.04	pIC50 ([1]; hSERT IC50): < 5.00
CNC[C@]1(c2cccc(Cl)c2)CCCC[C@H]1O (single isomer, unassigned) [138 E2, trans-2-(3-chlorophenyl)-2-((methylamino)methyl)cyclohexanol]	5.16	5.60	
CNC[C@]1(c2ccc(OC)cc2)CCCC[C@H]1O (single isomer, unassigned) [140 E1, (±) trans-2-(4-Methoxyphenyl)-2-((methylamino)methyl)cyclohexanol]	5.57	5.05	
CNC[C@]1(c2ccc(OC)cc2)CCCC[C@H]1O (single isomer, unassigned) [140 E2, (±) trans-2-(4-Methoxyphenyl)-2-((methylamino)methyl)cyclohexanol]		5.25	
CNC[C@@]1(c2ccc(C(F)(F)F)cc2)CCCC[C@H]1O (single isomer, unassigned) [143 E2, cis-2-((methylamino)methyl)-2-(4-(trifluoromethyl)phenyl)cyclohexanol]	5.14		
CNC[C@]1(c2ccc(C(F)(F)F)cc2)CCCC[C@H]1O (single isomer, unassigned) [144 E1, trans-2-((Methylamino)methyl)-2-(4-(trifluoromethyl)phenyl) cyclohexanol]	5.25		
CNC[C@@]1(c2ccc(OC(F)(F)F)cc2)CCCC[C@H]1O (single isomer, unassigned) [145 E1, cis-2-((Methylamino)methyl)-2-(4-(trifluoromethoxy)phenyl) cyclohexanol]	7.12	5.33	
CNC[C@@]1(c2ccc(OC(F)(F)F)cc2)CCCC[C@H]1O (single isomer, unassigned) [145 E2, cis-2-((Methylamino)methyl)-2-(4-(trifluoromethoxy)phenyl) cyclohexanol]	6.66	5.19	
CNC[C@]1(c2ccc(OC(F)(F)F)cc2)CCCC[C@H]1O (single isomer, unassigned) [146 E1, trans-2-((Methylamino)methyl)-2-(4-(trifluoromethoxy)phenyl) cyclohexanol]	5.34		

SMILES	pIC50 [1, 5]	pIC50 [2]	also measured
CNC[C@]1(c2ccc(OC(F)(F)F)cc2)CCCC[C@H]1O (single isomer, unassigned) [146 E2, trans-2-((Methylamino)methyl)-2-(4-(trifluoromethoxy)phenyl) cyclohexanol]	5.64		
CN(C)C[C@@]1(c2ccc(Cl)c(Cl)c2)CCCC[C@H]1O (single isomer, unassigned) [152 E1, cis-2-(3,4-dichlorophenyl)-2-((dimethylamino)methyl)cyclohexanol]	6.39	[…]	
CN(C)C[C@]1(c2ccc(Cl)c(Cl)c2)CCCC[C@H]1O (single isomer, unassigned) [153 E1, trans-2-(3,4-dichlorophenyl)-2-((dimethylamino)methyl)cyclohexanol]	7.77	[…]	
CN(C)C[C@]1(c2ccc(Cl)cc2)CCCC[C@H]1O (single isomer, unassigned) [154 E1, trans-2-(4-chlorophenyl)-2-((dimethylamino)methyl)cyclohexanol]	5.66	6.10	
CN(C)C[C@]1(c2ccc(Cl)cc2)CCCC[C@H]1O (single isomer, unassigned) [154 E2, trans-2-(4-chlorophenyl)-2-((dimethylamino)methyl)cyclohexanol]	6.36	6.05	
COc1ccc([C@]2(CN(C)C)CCCC[C@H]2O)cc1 (single isomer, unassigned) [155 E1, Cis-2-((dimethylamino)methyl)-2-(4-methoxyphenyl)cyclohexanol]	5.52		
COc1ccc([C@]2(CN(C)C)CCCC[C@H]2O)cc1 (single isomer, unassigned) [155 E2, Cis-2-((dimethylamino)methyl)-2-(4-methoxyphenyl)cyclohexanol]	5.20		
COc1ccc([C@@]2(CN(C)C)CCCC[C@H]2O)cc1 (single isomer, unassigned) [156 E1, trans-2-((dimethylamino)methyl)-2-(4-methoxyphenyl)cyclohexanol]	7.12	5.88	
NC[C@]1(c2ccc(Cl)c(Cl)c2)CCC[C@H](O)C1 (single isomer, unassigned) [184 E1, Cis-3-(aminomethyl)-3-(3,4-dichlorophenyl)cyclohexanol]		6.67	
NC[C@]1(c2ccc(Cl)c(Cl)c2)CCC[C@H](O)C1 (single isomer, unassigned) [184 E2, Cis-3-(aminomethyl)-3-(3,4-dichlorophenyl)cyclohexanol]		6.10	
NC[C@@]1(c2ccc(Cl)c(Cl)c2)CCC[C@H](O)C1 (single isomer, unassigned) [185 E1, Trans-3-(aminomethyl)-3-(3,4-dichlorophenyl)cyclohexanol]		6.38	
NC[C@@]1(c2ccc(Cl)c(Cl)c2)CCC[C@H](O)C1 (single isomer, unassigned) [185 E2, Trans-3-(aminomethyl)-3-(3,4-dichlorophenyl)cyclohexanol]		6.92	
CN(C)C[C@]1(c2ccc(Cl)c(Cl)c2)CCC[C@H](O)C1 (single isomer, unassigned) [190 E1, Cis-3-(3,4-dichlorophenyl)-3-((dimethylamino)methyl)cyclohexanol]		7.62	
CN(C)C[C@@]1(c2ccc(Cl)c(Cl)c2)CCC[C@H](O)C1 (single isomer, unassigned) [191 E2, Trans-3-(3,4-dichlorophenyl)-3-((dimethylamino)methyl)cyclohexanol]		8.70	
CC1(O)CCC(CN)(c2ccc(Cl)c(Cl)c2)CC1 (centres unmarked) [Compound 272, 4-(aminomethyl)-4-(3,4-dichlorophenyl)-1-methylcyclohexanol]		5.58	
CC1(O)CCC(CN)(c2ccc(Cl)c(Cl)c2)CC1 (centres unmarked) [Compound 275, 4-(aminomethyl)-4-(3,4-dichlorophenyl)-1-methylcyclohexanol]		6.29	
NC[C@]1(c2ccc(Cl)c(Cl)c2)CC[C@H](O)CC1 [Compound 299, (1s,4s)-4-(aminomethyl)-4-(3,4-dichlorophenyl)cyclohexanol]	5.41		

Reference: US10562878B2, “Cycloalkylamines as monoamine reuptake inhibitors” (Sunovion Pharmaceuticals Inc., priority 2006, dated 2020)
